According to patent US10342796B2, “Acrylanilide derivative, preparation method, and applications thereof in pharmacy” (Ancureall Pharmaceutical (Shanghai) Co., Ltd., priority 2015, dated 2019):
Read-outs that look alike come from different tables or passages of the source.

Columns and labels:
Test in all cases: Growth inhibition GI50 in vitro (CCK8/MTT, 72 h)
H1975 (EGFR L858R/T790M) = type: cell-based, human; conditions: Homo sapiens, NCI-H1975
PC-9 (EGFR dE746-A750) = type: cell-based, human; conditions: Homo sapiens
N87 (HER2 Amp) = type: cell-based, human; conditions: Homo sapiens
H292 (EGFR WT) = type: cell-based; conditions: Homo sapiens, NCI-H292
A549 (EGFR WT) = type: cell-based, human; conditions: Homo sapiens, A549
Calu-3 (Her2 amp) = type: cell-based; conditions: Homo sapiens
Experimental: Human lung adenocarcinoma cell line Calu-3 (ATCC) was cultured with 1×MEM complete medium (10% FBS, 1% double-antibiotics, 1% NEAA (Gibco), 2 mM glutamine and 1 mM of sodium pyruvate). Human breast cancer cell line SK-BR-3 was cultured with McCOY'S5A complete medium (10% FBS). Human colon cancer cell line SNU1040 (HER2 V777M positive) (ATCC) and human bronchoalveolar adenocarcinoma cell line NCI-H1781 (expressing HER2 exon 20 G776VC mutation) (ATCC) were cultured with 1×RPMI1640 complete medium (10% FBS), respectively.
The suspension cells were collected by centrifugation. The supernatant was discard and the cell pellet was resuspended and counted. Different cell concentrations (5˜10×10^4 cells/mL) were prepared according to the growth cycle of each cell line and then seeded on a 96-well plate (Corning), 100 μL/well. The cells were incubated over night at 37° C., 5% CO2. The compounds were added to the cells on the second day with 2 wells in parallel. The final concentration of organic solvent shall not exceed 1%. The cells were continually incubated for 72 h, and then subjected to MTT assay.
The present compounds and the reference compounds were dissolved with DMSO (Sigma), respectively. […] The storage concentration of compounds was 10 mM and kept at −20° C. They were diluted by 2 times or 10 times with serial dilution before using.
Dojindo CCK8 reagent kit was used as MTT assay. […] FC meter was used as microplate reader.
Adherent cell culture medium was discard and immediately replaced with fresh prepared medium which contains 10% CCK8 reagent (100 μL/well). For the suspension cells, CCK8 was directly added to 10% of the final concentration. The cells were continually incubated for 1˜4 h. When the color of control wells turned to dark yellow, the absorption value was measured at OD450 nm. The cell growth rate was calculated according to the following formula: cell growth rate (%)=100*(T−T0)/(C−T0), T=optical density of drug treatment cell well—optical density of blank control well; T0=optical density of cell well before drug treatment—optical density of blank control well; C=optical density of cell well of solvent control group—optical density of blank control well. […] The experiment was independently repeated 1˜3 times, and subject to biological statistical analysis.

HCC827 (EGFR dE746-A750) = type: cell-based, human; conditions: Homo sapiens
[1] = tested on: PC-9ER (EGFR delE746-A750/T790M); type: cell-based, human; conditions: Homo sapiens, PC-9/ER; EGFR mutant cell line; range of GI50; read-out: GI50 PC9ER
AU565 (Her2 amp) = type: cell-based, human; conditions: Homo sapiens
SK-BR-3 (Her2 amp) = type: cell-based, human; conditions: Homo sapiens
[2] = tested on: A431 (EGFR WT, amplification and high expression); type: cell-based, human; conditions: Homo sapiens, A-431
[3] = tested on: H1299 (EGFR wt, Nras Q61K); type: cell-based, human; conditions: Homo sapiens, NCI-H1299; EGFR wild type cell line; range of GI50; read-out: GI50 H1299
[4] = tested on: H460 (EGFR wt, Kras G61H); type: cell-based, human; conditions: Homo sapiens, NCI-H460; EGFR wild type cell line; range of GI50; read-out: GI50 H460
[5] = Table 13, 72 h, read-out: Range of GI50 H1975 (EGFR L858R/T790M)
[6] = Table 15, 1000 nM to 0.03 nM serial dilution, read-out: GI50 H1975 (EGFR L858R/T790M)
[7] = Table 13, 72 h, read-out: Range of GI50 PC-9 (EGFR dE746-A750)
[8] = Table 15, 1000 nM to 0.03 nM serial dilution, read-out: GI50 PC-9 (EGFR dE746-A750)
[9] = Table 13, 72 h, read-out: Range of GI50 N87 (HER2 Amp)
[10] = Table 16, 1000 nM to 0.03 nM serial dilution, read-out: GI50 N87 (HER2 amp)
[11] = Table 15, 1000 nM to 0.03 nM serial dilution, read-out: GI50 H292 (EGFR WT)
[12] = Table 13, 72 h, read-out: Range of GI50 A549 (EGFR WT)
[13] = Table 15, 1000 nM to 0.03 nM serial dilution, read-out: GI50 A549 (EGFR WT)
[14] = EGFR mutant cell line, range of GI50, read-out: GI50 H1975
[15] = HCC827, EGFR mutant cell line, range of GI50, read-out: GI50 HCC827
[16] = EGFR mutant cell line, range of GI50, read-out: GI50 PC-9
[17] = HER2 positive cell line, range of GI50, read-out: GI50 N87
[18] = AU565, HER2 positive cell line, range of GI50, read-out: GI50 AU-565
[19] = SK-BR-3, HER2 positive cell line, range of GI50, read-out: GI50 SK-BR-3
[20] = EGFR wild type cell line, range of GI50, read-out: GI50 A431

Structure (SMILES) | GI50 (H1975 (EGFR L858R/T790M); [5]) | GI50 (H1975 (EGFR L858R/T790M); [6]) | GI50 (PC-9 (EGFR dE746-A750); [7]) | GI50 (PC-9 (EGFR dE746-A750); [8]) | GI50 (N87 (HER2 Amp); [9]) | GI50 (N87 (HER2 Amp); [10]) | GI50 (H292 (EGFR WT); [11]) | GI50 (A549 (EGFR WT); [12]) | GI50 (A549 (EGFR WT); [13]) | GI50 (H1975 (EGFR L858R/T790M); [14]) | GI50 (HCC827 (EGFR dE746-A750); [15]) | GI50 (PC-9 (EGFR dE746-A750); [16]) | GI50 [1] | GI50 (N87 (HER2 Amp); [17]) | GI50 (AU565 (Her2 amp); [18]) | GI50 (SK-BR-3 (Her2 amp); [19]) | GI50 [2, 20] | also measured
C=CC(=O)Nc1cc(Nc2cc(Nc3ccc(OCC4CCOCC4)c(Cl)c3)ncn2)c(OC)cc1N(C)CCN(C)C [Compound 216, N-(5-(6-(3-chloro-4-(tetrahydropyran-4-yl-methoxyl)-phenylamino)-pyrimidin-4-ylamino)-2-((2-dimethylaminoethyl)-methyl-amino)-4-methoxyphenyl)-acrylamide] | < 0.01 µM | 0.00896 µM | < 0.01 µM | 0.00987 µM | < 0.01 µM | 0.0195 µM | > 1 µM | > 1 µM | > 1 µM |  |  |  |  |  |  |  |  | 
C=CC(=O)Nc1cc(Nc2nccc(-n3ccc4c(OCCOC)cccc43)n2)c(OC)cc1N(C)CCN(C)C [Compound 205, N-(5-(4-(4-(2-methoxyl-ethoxyl)-1H-indol-1-yl)-pyrimidin-2-ylamino)-2-(2-(dimethylamino-ethyl)-methyl-amino)-4-methoxyl-phenyl)-acrylamide] | < 0.01 µM | 0.0049 µM | < 0.01 µM | 0.00781 µM | < 0.01 µM | 0.00561 µM | > 1 µM | > 1 µM | > 1 µM |  |  |  |  |  |  |  |  | GI50 (Calu-3 (Her2 amp); Calu-3, Table 16, 1000 nM to 0.03 nM serial dilution, read-out: GI50 Calu3 (HER2 amp)): 0.00788 µM
C=CC(=O)Nc1cc(Nc2cc(-c3cn(C(C)C)c4ccc(F)cc34)ncn2)c(OC)cc1N(C)CCN(C)C [Compound 191, N-(5-(6-(5-fluoro-1-isopropyl-1H-indol-3-yl)-pyrimidin-4-ylamino)-4-methoxyl-2-((2-dimethylamino-ethyl)-methyl-amino)-phenyl)-acrylamide] |  |  |  |  |  |  |  |  |  | < 0.01 µM | < 0.01 µM | < 0.01 µM | < 0.01 µM | < 0.01 µM | 0.01 to 0.1 µM | < 0.01 µM | 0.1 to 1 µM | GI50 (A549 (EGFR WT); EGFR wild type cell line, range of GI50, read-out: GI50 A549): > 1 µM; GI50 [3]: > 1 µM; GI50 [4]: > 1 µM
C=CC(=O)Nc1cc(Nc2ncnc(Nc3cccc(Br)c3)n2)c(OC)cc1N1CCC(N2CCCC2)CC1 [Compound 118] |  |  |  |  |  |  |  |  |  | < 0.01 µM | < 0.01 µM | < 0.01 µM | < 0.01 µM | < 0.01 µM | < 0.01 µM | 0.01 to 0.1 µM | 0.1 to 1 µM | GI50 (H1975 (EGFR L858R/T790M); H1975, EGFR L858R/T790M, read-out: GI50): 0.0094 µM; GI50 (HCC827 (EGFR dE746-A750); HCC827, EGFR dE746-A750, read-out: GI50): 0.0023 µM; GI50 (PC-9 (EGFR dE746-A750); PC-9, EGFR dE746-A750, read-out: GI50): 0.00238 µM; GI50 (N87 (HER2 Amp); N87, EGFR wt, Her2 amp, read-out: GI50): 0.0048 µM; GI50 (AU565 (Her2 amp); AU565, EGFR wt, Her2 amp, read-out: GI50): 0.0048 µM; GI50 (SK-BR-3 (Her2 amp); SK-BR-3, EGFR wt, Her2 amp, read-out: GI50): 0.0292 µM; GI50 (Calu-3 (Her2 amp); Calu-3, EGFR wt, Her2 amp, read-out: GI50): 0.0146 µM; GI50 (H292 (EGFR WT); H292, EGFR wt, read-out: GI50): > 1 µM; GI50 ([2]; A431, EGFR wt, read-out: GI50): 0.156 µM
